Measured values: PubChem BioAssay (NCI)
Where “and” joins values, the source holds several entries; their conditions need not be identical. Identical values can stand only once.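 1) Cells in 96-well plates. 2) Compound, 48 h, 5 concentrations. 3) Linear interpolation between surrounding doses. 4) Unreached endpoint = highest concentration. The concentration for 50% growth inhibition is given as GI50. TGI marks complete inhibition of growth.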

What was measured:
Assay in all cases: inhibition of tumour cell growth, NCI panel, 48 h
SF-539 CNS = tested on: SF-539 CNS
HL-60(TB) leukemia = tested on: HL-60(TB) leukemia
SN12C renal = tested on: SN12C renal
MALME-3M melanoma = tested on: MALME-3M melanoma
SF-295 CNS = tested on: SF-295 CNS
SNB-19 CNS = tested on: SNB-19 CNS
K-562 leukemia = tested on: K-562 leukemia
T-47D breast = tested on: T-47D breast
UACC-62 melanoma = tested on: UACC-62 melanoma
HOP-92 NSCLC = tested on: HOP-92 NSCLC

| Structure (SMILES) | GI50 (SF-539 CNS) | TGI (SF-539 CNS) | GI50 (HL-60(TB) leukemia) | TGI (HL-60(TB) leukemia) | GI50 (SN12C renal) | TGI (SN12C renal) | GI50 (MALME-3M melanoma) | TGI (MALME-3M melanoma) | GI50 (SF-295 CNS) | TGI (SF-295 CNS) | GI50 (SNB-19 CNS) | TGI (SNB-19 CNS) | GI50 (K-562 leukemia) | TGI (K-562 leukemia) | GI50 (T-47D breast) | TGI (T-47D breast) | GI50 (UACC-62 melanoma) | TGI (UACC-62 melanoma) | GI50 (HOP-92 NSCLC) | TGI (HOP-92 NSCLC) |
| --- | --- | --- | --- | --- | --- | --- | --- | --- | --- | --- | --- | --- | --- | --- | --- | --- | --- | --- | --- | --- |
| CN(C)c1ccc(/C=N/NC(=O)c2cccc3ccccc23)c(Cl)c1 | 1730 nM | 26.1 µM | 460 nM | 3.64 µM | 8.85 µM | > 100 µM | 1290 nM | 69.2 µM | 588 nM | 9.96 µM | 15.5 µM | > 100 µM | 398 nM | > 100 µM | 2950 nM | > 100 µM | 978 nM | > 100 µM | 372 nM | 19.6 µM |
| O=c1cc(O)c2c(O)cc(O)cc2o1 | – | > 100 µM | – | > 100 µM | – | > 100 µM | – | > 100 µM | – | > 100 µM | – | > 100 µM | – | > 100 µM | – | > 100 µM | – | > 100 µM | – | > 100 µM |
| Cc1cc(S(N)(=O)=O)c(S/C(=N\Nc2ccc([N+](=O)[O-])cc2)c2ccc3ccccc3c2)cc1Cl | 4100 nM | 18.7 µM | > 100000 nM | > 100 µM | 18.6 µM | 44.1 µM | 11700 nM | 25.7 µM | 20000 nM | 66.2 µM | 67.5 µM | > 100 µM | 28000 nM | > 100 µM | – | 83.7 µM | 15600 nM | 28.9 µM | 1320 nM | 19.6 µM |
| CN(C)c1ccc(C(=C2C=CC(=[N+](C)C)C=C2)c2ccccc2Cl)cc1 | 259 nM | 0.951 µM | 277 nM | 3.84 µM | 0.239 µM | 1.67 µM | 266 nM | 1.05 µM | 89.4 nM | 0.401 µM | 0.348 µM | 1.29 µM | 244 nM | 3.79 µM | 188 nM | 0.901 µM | 323 nM | 1.43 µM | 302 nM | 1.35 µM |
| CC12CCC(O)CC1=CCC1C2CCC2(C)C(c3cccnc3)=CCC12 (centres undefined) | > 100000 nM | > 100 µM | > 100000 nM | > 100 µM | > 100 µM | > 100 µM | > 100000 nM | > 100 µM | 56000 nM | > 100 µM | > 100 µM | > 100 µM | 76800 nM | > 100 µM | > 100000 nM | > 100 µM | > 100000 nM | > 100 µM | 43000 nM | > 100 µM |
| COC(=O)[C@@H](OC)[C@@H]1Cc2cc3cc(OC4CC(OC5CC(O)C(O)C(C)O5)C(O)C(C)O4)c(C)c(O)c3c(O)c2C(=O)[C@H]1OC1CC(OC2CC(OC3CC(C)(O)C(O)C(C)O3)C(O)C(C)O2)C(O)C(C)O1 (some centres undefined) | 25 nM | 0.082 µM | 40.5 nM | 0.74 µM | 0.0389 µM | > 16.5 µM | 34 nM | 0.0839 µM | 35.7 nM | > 5.45 µM | 0.0449 µM | > 8.89 µM | 40.7 nM | > 16.5 µM | 42.1 nM | > 16.5 µM | 19.4 nM | 0.0469 µM | 36.5 nM | 0.119 µM |
| CC(=O)/C(=C\c1c(-c2ccccc2)[nH]c2ccccc12)S(=O)(=O)c1ccccc1 | 1310 nM | 3.08 µM | 1690 nM | 5.28 µM | 1.82 µM | 9.59 µM | 1980 nM | 9.19 µM | 2330 nM | 10.2 µM | 4.14 µM | 12.1 µM | 406 nM | 2.43 µM | 1260 nM | 7.03 µM | 975 nM | 4.46 µM | 3660 nM | 15.4 µM |
| COc1ccc2nccc(/C=C/c3ccnc4ccc(OC)cc34)c2c1 | > 93100 nM | > 100 µM | > 50800 nM | > 86.5 µM | > 100 µM | > 100 µM | 22100 nM | 48.1 µM | > 64600 nM | > 100 µM | > 100 µM | > 100 µM | > 43000 nM | > 59.1 µM | 43800 nM | > 87.3 µM | > 77400 nM | > 100 µM | 8110 nM | > 56.9 µM |
| C[C@]12CC[C@@H]3c4ccc(O)cc4CC[C@H]3[C@@H]1CC[C@@H]2NS(=O)(=O)c1ccc2ccccc2c1 | 2110 nM | 6.1 µM | 3310 nM | 13.7 µM | 1.94 µM | 4.25 µM | 2560 nM | 8.06 µM | 2250 nM | 6.03 µM | 4.17 µM | > 100 µM | 3420 nM | > 100 µM | 3900 nM | 16.3 µM | 1750 nM | 3.9 µM | 1830 nM | 7.14 µM |
| CCCC#CCOC(=O)c1cc([N+](=O)[O-])cc([N+](=O)[O-])c1 | – | > 100 µM | – | > 100 µM | – | > 100 µM | – | 69.1 µM | – | > 100 µM | – | > 100 µM | – | > 100 µM | – | > 100 µM | – | > 100 µM | – | > 100 µM |
| Nc1ncnc2nn(C3OC(CO)C(O)C3O)nc12 (centres undefined) | – | 58.5 µM | – | 23.6 µM | – | > 68.5 µM | – | > 100 µM | – | > 89.3 µM | – | 99.1 µM | – | > 100 µM | – | > 44.5 µM | – | > 100 µM | – | > 100 µM |
| C[C@@](O)(/C=C/[C@H]1CC=CC(=O)O1)[C@@H](C[C@@H](O)\C=C/C=C\C=C\CO)OP(=O)(O)O | 5280 nM | 11.5 µM and 23 µM | – | 2.99 µM | – | 80.5 µM | 6940 nM | 16 µM and 14.3 µM | – | 13.4 µM | 20.7 µM | 92.6 µM and 184 µM | 1390 nM | 363 µM and 84.6 µM | – | 161 µM | 6510 nM | 28 µM and 11 µM | – | 10.6 µM |
| COc1ccc2[nH]c(O)c(/C=c3/ccc4c(c3)N=C(c3ccc(F)cc3)N=4)c2c1 | 3830 nM | 23.7 µM | 28300 nM | > 100 µM | 4.88 µM | > 100 µM | 2580 nM | 6.32 µM | 7330 nM | > 100 µM | 9.47 µM | > 100 µM | 9140 nM | > 100 µM | 2010 nM | 4.99 µM | 6110 nM | > 100 µM | 2060 nM | 8.75 µM |
